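Five compound concentrations were applied to cells in 96-well plates for 48 hours; endpoints were derived by simple linear interpolation of the resulting dose-response curve. GI50 is the concentration that inhibits growth by half. TGI denotes the concentration required for complete inhibition of growth.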 Where only a bound is given, the exact number is not on record here.

The source of these data is PubChem BioAssay (NCI).

Test systems include EKVX NSCLC; BT-549 breast; SK-MEL-5 melanoma; A498 renal; MCF7 breast; SK-OV-3 ovarian; SR leukemia; SW-620 colon; UACC-257 melanoma; HCT-15 colon.
Holding throughout (test): NCI-60 cell line screen, 48 h

As for `OCCCCC#Cc1ccccc1C#Cc1ccc(C(F)(F)F)cc1`, the GI50 in the assay on EKVX NSCLC was 18.4 µM; with BT-549 breast, 18 µM; with SK-MEL-5 melanoma, 17.8 µM; in the assay on A498 renal, 15 µM; in the assay on MCF7 breast it was 33.3 µM; in the assay with SK-OV-3 ovarian, 18.5 µM. Also, the GI50 with SR leukemia was 0.693 µM; in the assay with SW-620 colon, 17 µM; in the assay with UACC-257 melanoma it was 14.9 µM; with HCT-15 colon it was 12.5 µM. Further, the TGI was determined as 35.9 µM in the assay on EKVX NSCLC; 35.1 µM with BT-549 breast; 33.3 µM in the assay with SK-MEL-5 melanoma; 28.6 µM in the assay with A498 renal; 85.6 µM in the assay with MCF7 breast; 34 µM in the assay with SK-OV-3 ovarian. In addition, the TGI came out at 31.8 µM in the assay with SR leukemia, 35.2 µM with SW-620 colon, 28.2 µM in the assay with UACC-257 melanoma and 25.4 µM in the assay on HCT-15 colon.
Regarding `CNCc1ccc(-c2[nH]c3cc(F)cc4c3c2CCNC4=O)cc1`, the GI50 was 26.1 µM with EKVX NSCLC; 17.4 µM with BT-549 breast; 14.7 µM with SK-MEL-5 melanoma; 21.6 µM with A498 renal; 8.9 µM in the assay on MCF7 breast; 18.6 µM in the assay with SK-OV-3 ovarian. Besides, the GI50 with SR leukemia was 9.51 µM; with SW-620 colon it was 16.1 µM; in the assay with UACC-257 melanoma, 17 µM; in the assay with HCT-15 colon, 35.8 µM. In addition, the TGI in the assay on EKVX NSCLC was greater than 83.1 µM; in the assay with BT-549 breast it was 36.4 µM; in the assay with SK-MEL-5 melanoma, 28.1 µM; with A498 renal, 53.8 µM; in the assay on MCF7 breast, 35.5 µM; with SK-OV-3 ovarian, 56 µM. The TGI in the assay on SR leukemia is 44 µM; in the assay on SW-620 colon it was 60.4 µM; in the assay on UACC-257 melanoma, 33.2 µM; in the assay with HCT-15 colon it was greater than 100 µM.
On to `COc1c(O)c2c3c(c1OC)-c1ccccc1CC3N(S(=O)(=O)c1ccc(C)cc1)CC2` (stereo not given), for which the GI50 in the assay on EKVX NSCLC was 4.04 µM; in the assay on BT-549 breast, 3.46 µM; with SK-MEL-5 melanoma, 1.77 µM; in the assay with A498 renal, 0.372 µM; in the assay on MCF7 breast, 1.65 µM; in the assay on SK-OV-3 ovarian, 1.96 µM. The GI50 is 1.36 µM in the assay on SR leukemia, 1.6 µM in the assay on SW-620 colon, 1.8 µM in the assay on UACC-257 melanoma and 2.05 µM in the assay with HCT-15 colon. The TGI is greater than 50 µM with EKVX NSCLC; 42.2 µM with BT-549 breast; greater than 50 µM with SK-MEL-5 melanoma; 5.54 µM in the assay with A498 renal; 23.5 µM with MCF7 breast; 38.4 µM in the assay with SK-OV-3 ovarian. In addition, the TGI in the assay with SR leukemia is 7.09 µM; with SW-620 colon, greater than 50 µM; with UACC-257 melanoma, greater than 50 µM; in the assay with HCT-15 colon it was greater than 50 µM.
For the compound `O=c1[nH]c2ccc([N+](=O)[O-])c(Cl)c2c2ccccc12`, the TGI in the assay with EKVX NSCLC was determined as 19.9 µM; in the assay with BT-549 breast, 21.2 µM; in the assay on SK-MEL-5 melanoma, 13 µM; with A498 renal it was 80.2 µM; with MCF7 breast, 2.23 µM; with SK-OV-3 ovarian it was 4.86 µM. The TGI was 7.59 µM in the assay with SR leukemia, 17.9 µM in the assay with SW-620 colon, 15.6 µM with UACC-257 melanoma and greater than 100 µM in the assay with HCT-15 colon.
`Fc1ccc(-c2nn3c(COc4ccc(Cl)cc4)nnc3s2)cc1Oc1ccccc1`: the GI50 is 30.8 µM in the assay with EKVX NSCLC; 24.8 µM with BT-549 breast; 18.2 µM in the assay with SK-MEL-5 melanoma; 15.3 µM in the assay on A498 renal; 21.9 µM with MCF7 breast; 78.9 µM with SK-OV-3 ovarian. Also, the GI50 is greater than 100 µM with SR leukemia, 48.4 µM with SW-620 colon, 41.6 µM in the assay with UACC-257 melanoma and greater than 60.6 µM in the assay on HCT-15 colon. Moreover, the TGI in the assay with EKVX NSCLC is greater than 74.2 µM; with BT-549 breast, 55.3 µM; in the assay with SK-MEL-5 melanoma, 41.5 µM; in the assay on A498 renal, 51.8 µM; in the assay on MCF7 breast, greater than 48.3 µM; in the assay on SK-OV-3 ovarian, greater than 100 µM. Also, the TGI with SR leukemia, with SW-620 colon, with UACC-257 melanoma and in the assay with HCT-15 colon was greater than 100 µM in each case.
`O=c1nc2[nH]c3c(-c4n[nH]c(=O)[nH]c4=O)cccc3c2n[nH]1`: the GI50 in the assay on EKVX NSCLC, in the assay on BT-549 breast, in the assay on SK-MEL-5 melanoma, with A498 renal, in the assay on MCF7 breast and with SK-OV-3 ovarian was greater than 100 µM each time. For the same compound, the GI50 in the assay on SR leukemia, in the assay with SW-620 colon, with UACC-257 melanoma and with HCT-15 colon was greater than 100 µM in each case. Further, the TGI with EKVX NSCLC, with BT-549 breast, in the assay with SK-MEL-5 melanoma, with A498 renal, with MCF7 breast and in the assay with SK-OV-3 ovarian was greater than 100 µM throughout. Further, the TGI in the assay with SR leukemia, with SW-620 colon, in the assay on UACC-257 melanoma and in the assay on HCT-15 colon was greater than 100 µM each time.
As to `CN(C)c1ccc(N=C2C=CC(=C(C#N)C#N)c3ccccc32)cc1`, the TGI was 19.1 µM with EKVX NSCLC; 5.12 µM in the assay with BT-549 breast; 0.713 µM in the assay on SK-MEL-5 melanoma; 1.37 µM with A498 renal; 7.51 µM with MCF7 breast; 6.53 µM with SK-OV-3 ovarian. Further, the TGI was determined as 48.1 µM in the assay on SR leukemia, 3.65 µM in the assay with SW-620 colon, 10.9 µM in the assay with UACC-257 melanoma and 4.72 µM in the assay with HCT-15 colon.
Regarding `CNCc1cccc2c1OCCOCCOCCC(C)S(=O)(=O)c1ccc(cc1)-c1cnc(N)c(n1)C(=O)N2` (stereo not given), the GI50 in the assay on EKVX NSCLC is 4.46 µM; in the assay with BT-549 breast, 1.53 µM; in the assay on SK-MEL-5 melanoma it was 2.05 µM; with A498 renal it was 0.139 µM; in the assay with MCF7 breast, 1.28 µM; in the assay with SK-OV-3 ovarian, 0.525 µM. The GI50 was 0.0861 µM in the assay with SR leukemia, 2.13 µM in the assay with SW-620 colon, 1.91 µM in the assay on UACC-257 melanoma and 1.11 µM in the assay on HCT-15 colon. Besides, the TGI with EKVX NSCLC worked out at 18.6 µM; with BT-549 breast it was 5.23 µM; in the assay on SK-MEL-5 melanoma, 4.58 µM; in the assay on A498 renal, 2.14 µM; in the assay on MCF7 breast, 14.6 µM; in the assay with SK-OV-3 ovarian it was 2.87 µM. The TGI in the assay with SR leukemia was determined as 4.71 µM; in the assay on SW-620 colon, 10.7 µM; in the assay on UACC-257 melanoma it was 4.55 µM; with HCT-15 colon it was 6.2 µM.
